Assay results taken from ChEMBL document CHEMBL1944508, “Identification of triazolopyridazinones as potent p38α inhibitors” (Bioorg Med Chem Lett, 2012).

Columns and labels:
Format in all cases: ADME, organism-based
[1] = Clearance in Sprague-Dawley rat at 2 mg/kg, iv; design: dose 2 mg/kg, route intravenous; conditions: in vivo
[2] = Volume of distribution at steady state in Sprague-Dawley rat at 2 mg/kg, iv; design: dose 2 mg/kg, route intravenous; conditions: in vivo, read-out: Vdss
[3] = Half life in Sprague-Dawley rat at 2 mg/kg, iv; design: dose 2 mg/kg, route intravenous; conditions: in vivo
[4] = AUC (0 to infinity) in Sprague-Dawley rat at 2 mg/kg, po; design: time infinity, dose 2 mg/kg, route oral; conditions: plasma
[5] = Oral bioavailability in Sprague-Dawley rat at 2 mg/kg; conditions: in vivo
[6] = Clearance in rat; conditions: in vivo

| clearance [1] | Vd [2] | half-life [3] | AUC(0-inf) [4] | bioavailability [5] | clearance [6] | SMILES |
| --- | --- | --- | --- | --- | --- | --- |
| 8.77 mL/min/kg | 2.42 L/kg | 3.4 h | 3190 ng·h/mL | 83% |  | Cc1c(F)cc(C(=O)NC2CC2)cc1-c1cc2nnc(-c3c(F)cccc3Cl)n2n(C)c1=O |
| 13.1 mL/min/kg | 2.54 L/kg | 2.76 h | 1420 ng·h/mL | 55% |  | CCn1c(=O)c(-c2cc(C(=O)NC3CC3)ccc2C)cc2nnc(-c3c(F)cccc3Cl)n21 |
|  |  |  |  |  | 6.17 mL/min/kg | Cc1ccc(C(=O)NC2CC2)cc1-c1ccn2c(-c3c(F)cccc3F)nnc2c1 |
| 11.4 mL/min/kg | 2.7 L/kg | 2.76 h | 1370 ng·h/mL | 42% |  | CCn1c(=O)c(-c2cc(C(=O)NC3CC3)cc(F)c2C)cc2nnc(-c3c(F)cccc3Cl)n21 |
|  |  |  |  |  | 3.67 mL/min/kg | Cc1ccc(C(=O)NC2CC2)cc1-c1cc2cnn(-c3c(F)cccc3F)c2n(C)c1=O |
